Source: patent US20110287108A1 (priority 2008, published 2011)
Where a name gives a salt, the structure may show the parent alone. Read-outs that look alike come from different tables or passages of the source.

Tested on: Phytophthora infestans
Type: in vivo
Conditions: tomato plants
[1] = protective, 3 days after inoculation, 0.25 ppm a.i.
[2] = protective, 3 days after inoculation, 0.5 ppm a.i.
[3] = protective, 3 days after inoculation, 12.5 ppm a.i.

| Molecule | Efficacy in % found [1] | Efficacy in % found [3] | further results |
| --- | --- | --- | --- |
| CCCCCNc1cccc(CON=C(c2ccccc2)c2nnnn2C)n1 [6-[({[(1-methyl-1H-tetrazol-5-yl)(phenyl)methylene]amino}oxy)methyl]-N-pentylpyridin-2-amine] |  |  | Efficacy in % found (protective spray, evaluated 3 days after inoculation, application rate cell empty): 69% |
| CCCCCCNc1cccc(CON=C(c2ccccc2)c2nnnn2C)n1 [N-hexyl-6-[({[(1-methyl-1H-tetrazol-5-yl)(phenyl)methylene]amino}oxy)-methyl]pyridin-2-amine] | 48% |  | Efficacy in % found [2]: 63% |
| CC(C)[C@H](NC(=O)O)C(=O)N[C@H](C)c1nc2ccc(F)cc2s1 [benthiavalicarb] | 16% |  |  |
| N#Cc1c(Cl)c(Cl)c(Cl)c(C#N)c1Cl [chlorothalonil] |  | 19% |  |
| [Cl-].[Cu+2].[Cu+2].[OH-].[OH-].[OH-] [copper oxychloride] |  | 58% |  |
| COc1ccc(C(=CC(=O)N2CCOCC2)c2ccc(Cl)cc2)cc1OC [dimethomorph] |  |  | Efficacy in % found [2]: 35% |
| O=C(NCc1ncc(C(F)(F)F)cc1Cl)c1c(Cl)cccc1Cl [fluopicolide] | 4% |  |  |
| OP(O)O [phosporous acid] |  | 33% |  |
| CCCOC(=O)NCCCN(C)C [propamocarb-HCl] |  |  | Efficacy in % found (protective, 3 days after inoculation, 25 ppm a.i.): 24% |
| CCC(C)(NC(=O)c1cc(Cl)c(C)c(Cl)c1)C(=O)CCl (stereo not drawn) [zoxamide] | 18% |  |  |
| fosetyl-aluminium |  | 42% |  |
